Data set [1] deals with HeLa cells. Description: Colony inhibition test on HeLa cells (cytotoxicity). Particulars: Homo sapiens; for IC50: read-out: DI50 (dose causing 50% inhibition). Format: cell-based. As to the method: Cytotoxicity. Colony inhibition test on HeLa cells.
The test was carried on HeLa according to the method described in J. Med. Chem., 1975, 18, 703. Exponentially growing cells (2 days after inoculation) were treated with several concentrations of daunorubicin, 4-demethoxydaunorubicin, and 4-demethoxy-13-dihydrodaunorubicin.
After 24 hours of exposure to the drugs, the cells were washed, trypsinized and plated (200 cells/plate). On day 6 the colonies containing more than 50 cells were counted. The dose causing 50% inhibition was calculated on the basis of dose-reponsive curves.
Colony inhibition on HeLa cells^a
^b % respect with control

The subject of data set [2] is leukemia P 388. Briefly: Activity against ascitic leukemia P 388 in CDF-1 mice. Format: in vivo. Particulars: i.p. on day 1. As to the method:
Activity against ascitic leukemia P 388
The experiments were performed on CDF-1 mice inoculated i.p. with 10^6 leukemic cells/mouse.

Data set [3] deals with Gross leukemia. Description: Activity against Gross leukemia in C3H mice. The following applies: i.v. on day 1. Format: in vivo. The protocol:
(§1) Activity against Gross leukemia
The experiments were performed on C3H mice inoculated i.v. with 2×10^6 leukemic cells/mouse.
as §1

The subject of data set [4] is advanced mammary Carcinoma. Briefly: Activity against advanced mammary carcinoma in C3H female mice. Format: in vivo. Particulars: once a week × 4 from palpable tumor; for growth % on day 48: controls 3476. The protocol: Activity against advanced mammary Carcinoma^a
The experiments were performed on C3H female mice inoculated
with 2 × 10^6 tumor cells/mouse
^a treatment once a week × 4, starting when the tumor was […]

[5] abbreviates: HeLa, 24 h, read-out: % Colonies (% respect with control).

The text below walks through data of US4604381A, “4-demethoxy-13-dihydrodaunorubicin and use thereof” (Farmitalia Carlo Erba S.p.A., priority 1984, dated 1986).

Structures are written as SMILES. Converted amounts (≈) assume the structure as drawn. Where two headings read alike, the source gives them in different places.

Take `CC(O)[C@]1(O)Cc2c(O)c3c(c(O)c2[C@@H](O[C@H]2C[C@H](N)[C@H](O)[C@H](C)O2)C1)C(=O)c1ccccc1C3=O` (stereo partly shown) [4-demethoxy-13-dihydrodaunorubicin]: the activity at 0.00156 µg/mL in data set [1] (setting [5]) is 100%. In data set [1] (setting [5]), the activity at 0.0031 µg/mL turned out to be 45%. Moreover, the activity at 0.0062 µg/mL in data set [1] (setting [5]) was 9%. Further, in data set [1] (setting [5]), the activity at 0.0125 µg/mL turned out to be 0%. For the same molecule, the IC50 in data set [1] (HeLa, 24 h) worked out at 3 ng/mL (≈ 0.00601 µM). Further, the T/C % worked out at 130% in data set [2] (0.14 mg/kg); 160% in data set [2] (0.22 mg/kg); 170% in data set [2] (0.33 mg/kg); 170% in data set [2] (0.5 mg/kg); 200% in data set [3] (0.84 mg/kg); 250% in data set [3] (1.26 mg/kg). Also, the T/C % in data set [3] (1.9 mg/kg) is reported as 258%. Further, the toxic deaths in data set [2] (0.14 mg/kg) is 0/10; in data set [2] (0.22 mg/kg), 0/10; in data set [2] (0.33 mg/kg) it was 0/10; in data set [2] (0.5 mg/kg), 3/10; in data set [3] (0.84 mg/kg), 0/10; in data set [3] (1.26 mg/kg), 0/10. Further, the toxic deaths in data set [3] (1.9 mg/kg) is 0/10. Also, the “inhibition % on day 48” value was 0% in data set [4] (0.6 mg/kg), 3% in data set [4] (0.8 mg/kg) and 65% in data set [4] (1.2 mg/kg). The entries for the “growth % on day 48” value in data set [4] (0.6 mg/kg), in data set [4] (0.8 mg/kg) and in data set [4] (1.2 mg/kg) were 5124%, 3374% and 1201%, respectively.
`CC(=O)[C@]1(O)Cc2c(O)c3c(c(O)c2[C@@H](O[C@H]2C[C@H](N)[C@H](O)[C@H](C)O2)C1)C(=O)c1ccccc1C3=O` [4-demethoxydaunorubicin]: the activity at 0.0015 µg/mL in data set [1] (HeLa, 1.5 ng/ml, 24 hours exposure, read-out: % Colonies (% respect with control)) came to 126%. For the same molecule, the activity at 0.0031 µg/mL in data set [1] (HeLa, 3.1 ng/ml, 24 hours exposure, read-out: % Colonies (% respect with control)) stood at 73%. For the same molecule, the activity at 0.0062 µg/mL in data set [1] (HeLa, 6.2 ng/ml, 24 hours exposure, read-out: % Colonies (% respect with control)) turned out to be 37%. In addition, the activity at 0.0125 µg/mL in data set [1] (HeLa, 12.5 ng/ml, 24 hours exposure, read-out: % Colonies (% respect with control)) was 10%. Also, the activity at 0.025 µg/mL in data set [1] (HeLa, 25 ng/ml, 24 hours exposure, read-out: % Colonies (% respect with control)) was 0%. Besides, the IC50 in data set [1] (HeLa colony inhibition, 24 hours exposure) was found to be 5.5 ng/mL (≈ 0.0111 µM). Besides, the T/C % is listed as 150% in data set [2] (0.33 mg/kg); 170% in data set [2] (0.5 mg/kg); 155% in data set [2] (0.75 mg/kg); 233% in data set [3] (1.9 mg/kg); 233% in data set [3] (2.5 mg/kg); 266% in data set [3] (3.3 mg/kg). Further, the toxic deaths in data set [2] (0.33 mg/kg) is given as 0/10; in data set [2] (0.5 mg/kg), 0/10; in data set [2] (0.75 mg/kg), 3/10; in data set [3] (1.9 mg/kg) it was 0/10; in data set [3] (2.5 mg/kg), 0/10; in data set [3] (3.3 mg/kg), 0/10. Moreover, the “inhibition % on day 48” value in data set [4] (0.8 mg/kg) worked out at 0%; in data set [4] (1.2 mg/kg) it was 42%. Moreover, the entries for the “growth % on day 48” value in data set [4] (0.8 mg/kg) and in data set [4] (1.2 mg/kg) were 4322% and 2029%, respectively.
For `COc1cccc2c1C(=O)c1c(O)c3c(c(O)c1C2=O)C[C@@](O)(C(C)=O)C[C@@H]3O[C@H]1C[C@H](N)[C@H](O)[C@H](C)O1` [daunorubicin], the activity at 0.0062 µg/mL in data set [1] (setting [5]) worked out at 92%. Besides, in data set [1] (setting [5]), the activity at 0.0125 µg/mL was found to be 32%. In addition, in data set [1] (setting [5]), the activity at 0.025 µg/mL came out at 3%. For the same molecule, the IC50 in data set [1] (HeLa, 24 h) came out at 11 ng/mL (≈ 0.0209 µM). Moreover, the T/C % is on record as 180% in data set [2] (4.4 mg/kg); 168% in data set [2] (6.6 mg/kg); 150% in data set [3] (10 mg/kg); 183% in data set [3] (15 mg/kg); 233% in data set [3] (22.5 mg/kg). Besides, the toxic deaths is given as 0/10 in data set [2] (4.4 mg/kg); 2/10 in data set [2] (6.6 mg/kg); 0/10 in data set [3] (10 mg/kg); 0/10 in data set [3] (15 mg/kg); 0/10 in data set [3] (22.5 mg/kg).
